Measured values from the supplement of paper PMC10307832.

How the values were obtained:
Assay in all cases: relative viability (nuclei count vs DMSO), 5 days (fraction); higher = more cells survive
[1] = compound: CC1=C(C=CC(=C1)[N+](=O)[O-])NS(=O)(=O)C2=C(C=CC(=C2)Cl)Cl [FH535] + CC(=O)Nc1cccc(-n2c(=O)n(C3CC3)c(=O)c3c(Nc4ccc(I)cc4F)n(C)c(=O)c(C)c32)c1 [Trametinib] (partner 0.02 µM)
Outline: (§1)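 Lung cancer cell lines were seeded in 1536-well plates and dosed by pin tool the next day, with either a single drug or a fixed anchor-drug dose combined with five library-drug doses (not always all listed) spaced in √10 steps. Five days later, one step fixed the cells and stained their nuclei (final 0.05% Triton X-100, 1% formaldehyde, 1 ug/ml Hoechst), and nuclei were counted on 4× images. Relative viability is the nuclei count in treated wells divided by the count in vehicle wells, and each value is the median of duplicate plates.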

[2] = compound: CC1=C(C=CC(=C1)[N+](=O)[O-])NS(=O)(=O)C2=C(C=CC(=C2)Cl)Cl [FH535] + CC1(C)CCC(c2ccc(Cl)cc2)=C(CN2CCN(c3ccc(C(=O)NS(=O)(=O)c4ccc(N[C@H](CCN5CCOCC5)CSc5ccccc5)c(S(=O)(=O)C(F)(F)F)c4)cc3)CC2)C1 [Navitoclax] (partner 0.5 µM)
Outline: as §1

[3] = compound: CC1=C(C=CC(=C1)[N+](=O)[O-])NS(=O)(=O)C2=C(C=CC(=C2)Cl)Cl [FH535] + CCNC(=O)c1noc(-c2cc(C(C)C)c(O)cc2O)c1-c1ccc(CN2CCOCC2)cc1 [Luminespib] (partner 0.01 µM)
Outline: as §1

[4] = compound: CC1=C(C=CC(=C1)[N+](=O)[O-])NS(=O)(=O)C2=C(C=CC(=C2)Cl)Cl [FH535] + NC(=O)Nc1cc(-c2cccc(F)c2)sc1C(=O)N[C@H]1CCCNC1 [AZD7762] (partner 0.2 µM)
Outline: as §1

[5] = compound: CC1=C(C=CC(=C1)[N+](=O)[O-])NS(=O)(=O)C2=C(C=CC(=C2)Cl)Cl [FH535] + Nc1ncn([C@H]2C[C@H](O)[C@@H](CO)O2)c(=O)n1 [Decitabine] (partner 2 µM)
Outline: as §1

Cell Line	relative viability ([1]; first compound 0.04 µM)	relative viability ([1]; first compound 0.1265 µM)	relative viability ([1]; first compound 0.4 µM)	relative viability ([1]; first compound 1.265 µM)	relative viability ([2]; first compound 0.04 µM)	relative viability ([2]; first compound 0.1265 µM)	relative viability ([2]; first compound 0.4 µM)	relative viability ([2]; first compound 1.265 µM)	relative viability ([3]; first compound 0.04 µM)	relative viability ([3]; first compound 0.1265 µM)	relative viability ([3]; first compound 0.4 µM)	relative viability ([3]; first compound 1.265 µM)	relative viability ([4]; first compound 0.04 µM)	relative viability ([4]; first compound 0.1265 µM)	relative viability ([4]; first compound 0.4 µM)	relative viability ([4]; first compound 1.265 µM)	relative viability ([5]; first compound 0.04 µM)	relative viability ([5]; first compound 0.1265 µM)	relative viability ([5]; first compound 0.4 µM)	relative viability ([5]; first compound 1.265 µM)
LC-2-ad	0.886	0.878	0.88	0.766	0.34	0.491	0.549	0.325	0.967	1.16	1.03	0.755	0.809	0.828	0.744	0.697	0.773	0.892	0.764	0.713
LCLC-97TM1	0.175	0.191	0.178	0.203	–	0.446	0.392	0.304	0.736	0.763	0.742	0.436	0.127	0.276	0.278	0.227	0.247	0.273	0.247	0.187
LK-2	0.637	0.688	0.81	0.732	0.788	0.855	1	1.06	0.201	0.165	0.168	0.173	0.425	0.459	0.323	0.39	0.254	0.26	0.298	0.286
LOU-NH91	0.729	0.819	0.75	0.525	0.602	0.736	0.695	0.233	0.333	0.326	0.369	0.288	0.767	0.779	0.608	0.428	0.759	0.823	0.788	0.64
LU99A	0.475	0.572	0.576	0.338	0.716	0.667	0.844	0.844	0.225	0.272	0.209	0.236	0.205	0.353	0.354	0.328	0.789	0.944	0.841	0.794
LXF-289	0.726	0.689	0.62	0.436	0.996	0.936	0.945	0.645	0.635	0.837	0.611	0.61	1.05	1.1	1.03	0.873	0.357	0.422	0.369	0.336
NCI-H23	0.345	0.448	0.418	0.306	–	0.821	0.818	0.703	–	0.207	0.199	0.225	0.22	0.391	0.275	0.307	0.299	0.31	0.347	0.318
NCI-H322M	0.47	0.459	0.478	0.526	1.13	1.39	1.19	1.2	0.816	0.904	0.866	0.805	0.522	0.549	0.515	0.633	0.677	0.711	0.694	0.682
NCI-H441	0.454	0.334	0.428	0.394	0.669	0.773	0.502	0.365	0.319	0.291	0.356	0.352	1.09	1.32	1.09	1.02	0.221	0.263	0.265	0.252
NCI-H460	0.12	0.152	0.157	0.103	1.15	1.25	1.11	0.696	0.0362	0.0377	0.0408	0.0254	0.616	0.615	0.603	0.337	0.442	0.608	0.493	0.347
NCI-H596	0.814	0.864	0.854	0.748	0.856	0.967	1.05	0.874	1.07	1.11	0.85	0.992	1.04	1.18	0.933	1.05	0.983	1.06	1	0.976
NCI-H647	0.51	0.566	0.424	0.418	1.06	1.2	1.1	0.919	0.156	0.167	0.125	0.23	0.557	0.519	0.322	0.418	0.311	0.362	0.364	0.334
NCI-H727	0.402	0.362	0.365	0.387	0.479	0.39	0.369	0.381	0.323	0.5	0.327	0.297	0.409	0.59	0.595	0.59	0.845	0.945	0.851	0.877
NCI-H838	0.536	0.52	0.452	0.462	1.16	1.24	1.07	0.969	0.278	0.419	0.261	0.247	0.893	1	0.902	0.891	0.39	0.498	0.387	0.345
NCI-H1355	0.397	0.428	0.406	0.329	0.862	0.998	0.88	0.66	0.667	0.761	0.72	0.463	0.688	0.843	0.727	0.76	0.334	0.325	0.368	0.36
